Experimental data published in ChEMBL document CHEMBL3525917, “Species difference in the mechanism of nonlinear pharmacokinetics of E2074, a novel sodium channel inhibitor, in rats, dogs, and monkeys” (Drug Metab Dispos, 2013).

Columns and labels:
[1] = Tmax in beagle dog at 10 mg/kg, po; format: ADME, organism-based, Canis lupus familiaris; design: dose 10 mg/kg, route oral; details: in vivo
Canis familiaris = organism: Canis familiaris; assay: Unbound intrinsic clearance in beagle dog; format: ADME, organism-based, Canis lupus familiaris; details: in vivo
[2] = Drug metabolism in beagle dog intestinal microsomes; format: ADME, Canis lupus familiaris, Intestine, Microsome
[3] = Cmax in cynomolgus monkey at 3 mg/kg, po in presence of ketoconazole; format: ADME, organism-based, Macaca fascicularis; design: dose 3 mg/kg, route oral; details: in vivo
[4] = Half life in beagle dog at 3 mg/kg, po; format: ADME, organism-based, Canis lupus familiaris; design: dose 3 mg/kg, route oral; details: in vivo
[5] = AUC in cynomolgus monkey at 3 mg/kg, po in presence of ketoconazole; format: ADME, organism-based, Macaca fascicularis; design: dose 3 mg/kg, route oral; details: plasma
[6] = Cmax in Sprague-Dawley rat at 10 mg/kg, po; format: ADME, organism-based; design: dose 10 mg/kg, route oral; details: in vivo
[7] = Tmax in cynomolgus monkey at 10 mg/kg, po; format: ADME, organism-based, Macaca fascicularis; design: dose 10 mg/kg, route oral; details: in vivo
[8] = Ratio of drug level in blood to plasma in beagle dog at 0.25 uM after 10 mins by equilibrium dialysis technique; format: ADME, Canis lupus familiaris; details: blood and plasma
Cynomolgus monkey [9] = assay: Ratio of dose normalized Cmax in cynomolgus monkey at 10 mg/kg, po in presence of ketoconazole to dose normalized Cmax in cynomolgus monkey at 10 mg/kg, po; format: ADME, organism-based, Macaca fascicularis; details: in vivo
[10] = AUC in cynomolgus monkey at 3 mg/kg, po; format: ADME, organism-based, Macaca fascicularis; design: dose 3 mg/kg, route oral; details: plasma
Cynomolgus monkey [11] = assay: Unbound intrinsic clearance in cynomolgus monkey; format: ADME, organism-based, Macaca fascicularis; details: in vivo
[12] = Clearance in cynomolgus monkey at 1 mg/kg, iv in presence of ketoconazole; format: ADME, organism-based, Macaca fascicularis; design: dose 1 mg/kg, route intravenous; details: in vivo
[13] = Clearance in cynomolgus monkey at 1 mg/kg, iv; format: ADME, organism-based, Macaca fascicularis; design: dose 1 mg/kg, route intravenous; details: in vivo
[14] = AUC in wild-type mouse at 3 mg/kg, po; format: ADME, organism-based; design: dose 3 mg/kg, route oral; details: plasma
[15] = AUC in Sprague-Dawley rat at 3 mg/kg, po; format: ADME, organism-based; design: dose 3 mg/kg, route oral; details: plasma
[16] = Ratio of drug level in brain to plasma in MDR1A/1B knock-out mouse at 3 mg/kg, po; format: ADME, organism-based; design: dose 3 mg/kg, route oral; details: brain and plasma
[17] = Ratio of drug level in brain to plasma in wild-type mouse at 3 mg/kg, po; format: ADME, organism-based; design: dose 3 mg/kg, route oral; details: brain and plasma
[18] = AUC in cynomolgus monkey at 1 mg/kg, iv; format: ADME, organism-based, Macaca fascicularis; design: dose 1 mg/kg, route intravenous; details: plasma
[19] = AUC in Sprague-Dawley rat at 30 mg/kg, po; format: ADME, organism-based; design: dose 30 mg/kg, route oral; details: plasma
[20] = AUC in Sprague-Dawley rat at 1 mg/kg, iv; format: ADME, organism-based; design: dose 1 mg/kg, route intravenous; details: plasma
[21] = Half life in Sprague-Dawley rat at 10 mg/kg, po; format: ADME, organism-based; design: dose 10 mg/kg, route oral; details: in vivo
[22] = Tmax in MDR1A/1B knock-out mouse at 3 mg/kg, po; format: ADME, organism-based; design: dose 3 mg/kg, route oral; details: in vivo
[23] = AUC in beagle dog at 10 mg/kg, po; format: ADME, organism-based, Canis lupus familiaris; design: dose 10 mg/kg, route oral; details: plasma
[24] = Fraction unbound in cynomolgus monkey plasma at 0.25 uM by equilibrium dialysis technique; format: ADME, cell-free, Macaca fascicularis
[25] = Oral bioavailability in cynomolgus monkey at 3 mg/kg; format: ADME, organism-based, Macaca fascicularis; details: in vivo
Cynomolgus monkey [26] = assay: Ratio of dose normalized AUC in cynomolgus monkey at 1 mg/kg, iv in presence of ketoconazole to dose normalized AUC in cynomolgus monkey at 1 mg/kg, iv; format: ADME, organism-based, Macaca fascicularis; details: in vivo
[27] = AUC in cynomolgus monkey at 10 mg/kg, po in presence of ketoconazole; format: ADME, organism-based, Macaca fascicularis; design: dose 10 mg/kg, route oral; details: plasma
[28] = Drug metabolism in Sprague-Dawley rat intestinal microsomes; format: ADME, Intestine, Microsome
[29] = Oral bioavailability in cynomolgus monkey at 10 mg/kg; format: ADME, organism-based, Macaca fascicularis; details: in vivo
[30] = Cmax in beagle dog at 3 mg/kg, po; format: ADME, organism-based, Canis lupus familiaris; design: dose 3 mg/kg, route oral; details: in vivo
[31] = Blood clearance in cynomolgus monkey; format: ADME, organism-based, Macaca fascicularis
[32] = Oral bioavailability in beagle dog at 3 mg/kg; format: ADME, organism-based, Canis lupus familiaris; details: in vivo
[33] = Cmax in wild-type mouse at 3 mg/kg, po; format: ADME, organism-based; design: dose 3 mg/kg, route oral; details: in vivo
Cynomolgus monkey [34] = assay: Ratio of dose normalized AUC in cynomolgus monkey at 10 mg/kg, po in presence of ketoconazole to dose normalized AUC in cynomolgus monkey at 10 mg/kg, po; format: ADME, organism-based, Macaca fascicularis; details: in vivo
[35] = Half life in Sprague-Dawley rat at 3 mg/kg, po; format: ADME, organism-based; design: dose 3 mg/kg, route oral; details: in vivo
[36] = Half life in Sprague-Dawley rat at 1 mg/kg, iv; format: ADME, organism-based; design: dose 1 mg/kg, route intravenous; details: in vivo
[37] = Half life in cynomolgus monkey at 1 mg/kg, iv; format: ADME, organism-based, Macaca fascicularis; design: dose 1 mg/kg, route intravenous; details: in vivo
[38] = AUC in beagle dog at 1 mg/kg, iv; format: ADME, organism-based, Canis lupus familiaris; design: dose 1 mg/kg, route intravenous; details: plasma
[39] = Volume of distribution at steady state in cynomolgus monkey at 1 mg/kg, iv; format: ADME, organism-based, Macaca fascicularis; design: dose 1 mg/kg, route intravenous; details: in vivo, read-out: Vdss
[40] = Cmax in double-cannulated Sprague-Dawley rat portal vein at 10 mg/kg, po; format: ADME, organism-based; design: dose 10 mg/kg, route oral
[41] = Cmax in cynomolgus monkey at 3 mg/kg, po; format: ADME, organism-based, Macaca fascicularis; design: dose 3 mg/kg, route oral; details: in vivo
[42] = Cmax in cynomolgus monkey at 10 mg/kg, po in presence of ketoconazole; format: ADME, organism-based, Macaca fascicularis; design: dose 10 mg/kg, route oral; details: in vivo
[43] = (§1) Drug metabolism in beagle dog liver microsomes after 30 mins by biphasic component Michaelis-Menten plot analysis; format: ADME, Canis lupus familiaris; details: beagle, liver microsomes
Liver microsome = assay: as §1; format: ADME, Canis lupus familiaris; details: microsomes, 0.5 h
[44] = Volume of distribution at steady state in cynomolgus monkey at 1 mg/kg, iv in presence of ketoconazole; format: ADME, organism-based, Macaca fascicularis; design: dose 1 mg/kg, route intravenous; details: in vivo, read-out: Vdss
[45] = biological target: MDR1A (P-glycoprotein, ABCB1) (Mus musculus, UniProt P21447); assay: Activity of mouse MDR1A expressed in pig LLC-PK1 cells assessed as efflux ratio of permeability from basolateral to apical side to apical to basolateral side at 1 uM after 2 hrs; format: ADME, cell-based
Sequence of MDR1A (P-glycoprotein, ABCB1) (P21447 whole entry): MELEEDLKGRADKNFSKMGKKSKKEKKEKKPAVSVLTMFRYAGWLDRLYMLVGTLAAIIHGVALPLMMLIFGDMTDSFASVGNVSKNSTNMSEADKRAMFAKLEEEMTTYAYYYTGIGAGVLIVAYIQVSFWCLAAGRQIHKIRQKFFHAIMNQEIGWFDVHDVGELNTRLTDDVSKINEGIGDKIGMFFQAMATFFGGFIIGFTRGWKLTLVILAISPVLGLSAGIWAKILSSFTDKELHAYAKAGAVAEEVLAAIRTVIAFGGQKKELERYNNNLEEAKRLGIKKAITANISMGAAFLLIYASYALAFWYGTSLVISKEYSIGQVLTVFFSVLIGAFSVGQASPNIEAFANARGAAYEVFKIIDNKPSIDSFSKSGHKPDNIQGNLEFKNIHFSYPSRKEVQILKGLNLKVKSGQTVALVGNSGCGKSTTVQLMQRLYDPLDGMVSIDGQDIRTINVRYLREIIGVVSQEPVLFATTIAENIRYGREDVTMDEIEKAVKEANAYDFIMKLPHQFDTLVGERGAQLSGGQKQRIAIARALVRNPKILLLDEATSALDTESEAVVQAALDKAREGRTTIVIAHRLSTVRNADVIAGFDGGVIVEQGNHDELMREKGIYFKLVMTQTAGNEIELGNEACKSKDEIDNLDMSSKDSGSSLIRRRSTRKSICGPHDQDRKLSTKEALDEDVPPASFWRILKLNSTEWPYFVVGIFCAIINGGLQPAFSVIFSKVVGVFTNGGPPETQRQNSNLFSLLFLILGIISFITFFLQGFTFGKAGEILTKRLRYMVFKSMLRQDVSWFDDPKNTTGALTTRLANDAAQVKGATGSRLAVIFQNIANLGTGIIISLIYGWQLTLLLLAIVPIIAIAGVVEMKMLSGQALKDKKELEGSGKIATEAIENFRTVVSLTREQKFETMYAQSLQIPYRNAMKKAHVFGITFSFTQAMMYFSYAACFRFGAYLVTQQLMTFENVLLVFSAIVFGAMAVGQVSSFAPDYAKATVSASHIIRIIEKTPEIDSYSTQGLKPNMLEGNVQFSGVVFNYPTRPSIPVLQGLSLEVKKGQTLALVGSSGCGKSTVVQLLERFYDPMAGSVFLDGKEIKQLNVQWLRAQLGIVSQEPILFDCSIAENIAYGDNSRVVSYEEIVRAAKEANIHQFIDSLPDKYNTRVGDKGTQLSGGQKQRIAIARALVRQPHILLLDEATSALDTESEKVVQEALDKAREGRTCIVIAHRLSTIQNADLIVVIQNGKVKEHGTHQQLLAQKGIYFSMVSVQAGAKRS

[46] = Clearance in Sprague-Dawley rat at 1 mg/kg, iv; format: ADME, organism-based; design: dose 1 mg/kg, route intravenous; details: in vivo
[47] = Ratio of drug level in blood to plasma in cynomolgus monkey at 0.25 uM after 10 mins by equilibrium dialysis technique; format: ADME, Macaca fascicularis; details: blood and plasma
[48] = AUC in beagle dog at 3 mg/kg, po; format: ADME, organism-based, Canis lupus familiaris; design: dose 3 mg/kg, route oral; details: plasma
[49] = AUC in MDR1A/1B knock-out mouse at 3 mg/kg, po; format: ADME, organism-based; design: dose 3 mg/kg, route oral; details: plasma
[50] = Tmax in Sprague-Dawley rat at 3 mg/kg, po; format: ADME, organism-based; design: dose 3 mg/kg, route oral; details: in vivo
[51] = Tmax in cynomolgus monkey at 3 mg/kg, po; format: ADME, organism-based, Macaca fascicularis; design: dose 3 mg/kg, route oral; details: in vivo
[52] = Half life in cynomolgus monkey at 10 mg/kg, po in presence of ketoconazole; format: ADME, organism-based, Macaca fascicularis; design: dose 10 mg/kg, route oral; details: in vivo

For `Cc1nn(C[C@H](F)CN2C3CCC2CC(OCc2cccc(F)c2)C3)c(=O)n1C` (some centres undefined), the Tmax [1] was 30 min, the CL free (Canis familiaris) was 208 µL/min/mg and the Drug metabolism [2] was “metabolite_not_detected”. For the same compound, the Cmax [3] was 400 ng/mL, the half-life [4] was 54.6 min and the AUC [5] was 1550 ng·h/mL. For the same compound, the Cmax [6] was 200 ng/mL, the Tmax [7] was 60 min and the blood plasma ratio at 10 min, 0.25 µM [8] was 0.86. For the same compound, the Ratio (Cynomolgus monkey [9]) was 4.5, the AUC [10] was 180 ng·h/mL and the CL free (Cynomolgus monkey [11]) was 84 µL/min/mg. The clearance [12] was 20.3 mL/min/kg, the clearance [13] was 22.5 mL/min/kg and the AUC [14] was 230 ng·h/mL. The AUC [15] was 20 ng·h/mL, the Kp [16] was 8.3 and the Kp [17] was 2.4. It also gave an AUC [18] of 700 ng·h/mL, an AUC [19] of 1420 ng·h/mL and an AUC [20] of 310 ng·h/mL. The half-life [21] was 34.2 min, the Tmax [22] was 15 min and the AUC [23] was 2730 ng·h/mL. It also gave a fraction unbound at 0.25 µM [24] of 0.676, a bioavailability [25] of 7.8% and a Ratio (Cynomolgus monkey [26]) of 1. For the same compound, the AUC [27] was 7090 ng·h/mL, the Drug metabolism [28] was “metabolite_not_detected” and the bioavailability [29] was 20.9%. It also gave a Cmax [30] of 20 ng/mL, a clearance [31] of 22.3 mL/min/kg and a bioavailability [32] of 1.2%. For the same compound, the Cmax [33] was 110 ng/mL, the Ratio (Cynomolgus monkey [34]) was 6.3 and the half-life [35] was 30 min. The half-life [36] was 51 min, the half-life [37] was 116 min and the AUC [38] was 620 ng·h/mL. The Vd [39] was 3.07 L/kg, the Cmax [40] was 10600 ng/mL and the Cmax [41] was 40 ng/mL. The Cmax [42] was 1520 ng/mL, the Km at 0.5 h [43] was 21.5 µM and the Vmax (Liver microsome) was 0.72 nmol/min/mg. For the same compound, the Vd [44] was 3.29 L/kg, the efflux ratio at 2 h, 1 µM [45] was 3.14 and the clearance [46] was 53.5 mL/min/kg. It also gave a blood plasma ratio at 10 min, 0.25 µM [47] of 1.01, an AUC [48] of 20 ng·h/mL and an AUC [49] of 240 ng·h/mL. For the same compound, the Tmax [50] was 15 min, the Tmax [51] was 60 min and the half-life [52] was 164 min.
